Target: ALK tyrosine kinase receptor (Homo sapiens, UniProt Q9UM73)
Assay: In Vitro Kinase Activity Assay
Details: pH 7.5

ALK tyrosine kinase receptor, sequence (Q9UM73 whole entry): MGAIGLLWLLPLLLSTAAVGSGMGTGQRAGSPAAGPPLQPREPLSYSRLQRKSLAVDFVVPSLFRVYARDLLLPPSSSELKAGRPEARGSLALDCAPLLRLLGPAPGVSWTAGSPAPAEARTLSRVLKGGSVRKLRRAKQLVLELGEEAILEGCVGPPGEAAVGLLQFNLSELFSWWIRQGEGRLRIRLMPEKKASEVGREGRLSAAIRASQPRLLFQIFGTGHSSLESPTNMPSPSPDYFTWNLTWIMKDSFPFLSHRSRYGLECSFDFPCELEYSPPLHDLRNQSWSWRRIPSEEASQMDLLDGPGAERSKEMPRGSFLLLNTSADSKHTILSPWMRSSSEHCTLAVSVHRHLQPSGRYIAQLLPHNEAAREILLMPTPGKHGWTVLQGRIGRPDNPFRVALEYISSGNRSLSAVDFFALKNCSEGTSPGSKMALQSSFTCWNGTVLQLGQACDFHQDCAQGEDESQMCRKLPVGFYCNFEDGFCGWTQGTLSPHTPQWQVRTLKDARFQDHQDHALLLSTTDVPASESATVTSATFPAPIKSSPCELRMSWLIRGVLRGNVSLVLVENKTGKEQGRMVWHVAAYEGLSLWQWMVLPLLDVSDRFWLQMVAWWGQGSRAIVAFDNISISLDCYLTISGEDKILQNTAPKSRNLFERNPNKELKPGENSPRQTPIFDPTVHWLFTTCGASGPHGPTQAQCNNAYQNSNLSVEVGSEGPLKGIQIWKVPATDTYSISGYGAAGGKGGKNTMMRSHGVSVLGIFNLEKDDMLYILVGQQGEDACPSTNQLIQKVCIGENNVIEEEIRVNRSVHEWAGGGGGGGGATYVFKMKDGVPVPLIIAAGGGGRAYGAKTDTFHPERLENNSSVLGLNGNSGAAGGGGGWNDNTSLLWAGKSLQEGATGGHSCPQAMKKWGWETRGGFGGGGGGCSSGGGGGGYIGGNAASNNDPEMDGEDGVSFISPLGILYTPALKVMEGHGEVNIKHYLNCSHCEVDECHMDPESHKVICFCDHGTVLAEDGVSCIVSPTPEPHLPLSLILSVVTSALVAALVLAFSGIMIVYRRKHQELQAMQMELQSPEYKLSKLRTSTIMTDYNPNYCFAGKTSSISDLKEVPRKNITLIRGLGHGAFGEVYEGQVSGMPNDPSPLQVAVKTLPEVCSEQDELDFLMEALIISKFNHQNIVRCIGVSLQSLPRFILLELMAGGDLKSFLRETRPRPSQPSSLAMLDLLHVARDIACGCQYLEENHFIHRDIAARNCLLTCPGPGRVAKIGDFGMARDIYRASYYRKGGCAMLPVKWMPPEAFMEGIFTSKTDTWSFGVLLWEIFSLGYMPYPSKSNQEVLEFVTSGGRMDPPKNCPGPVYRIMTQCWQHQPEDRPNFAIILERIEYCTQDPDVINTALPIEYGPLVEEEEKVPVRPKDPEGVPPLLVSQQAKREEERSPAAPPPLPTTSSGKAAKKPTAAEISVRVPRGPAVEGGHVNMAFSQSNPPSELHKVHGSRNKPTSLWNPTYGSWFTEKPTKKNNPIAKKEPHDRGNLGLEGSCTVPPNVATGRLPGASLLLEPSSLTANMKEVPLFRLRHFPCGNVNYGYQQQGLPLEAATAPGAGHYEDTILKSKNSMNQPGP

IC50: 15.1 nM
Structure (SMILES): CC(Cc1cc(F)ccc1F)Nc1cc[nH]c(=O)c1-c1nc2cc3c(cc2[nH]1)C(=O)N(C1CCN(C)CC1)C3=O (stereo unspecified) [US8822500, [28]]

From BindingDB's records for patent US8822500 (Chembridge, 2014)
